Results: patent publication US6641797B2, “Perfluoroalkyl-containing complexes with sugar radicals, process for their production and their use” (Schering Aktiengesellschaft, priority 2000, dated 2003)

Experiments:
Type in all cases: in vivo
[1] = test system: rats with acute induced myocardial infarction; experiment: Infarction visualization (MRT) after intravenous administration in rats with acute induced myocardial infarction; conditions: 100 μmol of Gd/kg i.v.; 24 hours; T1-weighted spin-echo, 1.5 T; confirmed by NBT staining
Description: Infarction Visualization (MRT) After Intravenous Administration of the Contrast Medium According to the Invention of Example 1 in Rats
MR images were prepared of the heart (in vivo and post mortem) 24 hours after intravenous administration of 100 μmol of Gd/kg of body weight of the title compound of Example 1 in rats with acute induced myocardial infarction. […] The successful indication of an acute myocardial infarction was confirmed using NBT staining.

[2] = test system: VX2-tumor-carrying rabbits; experiment: Lymph node visualization (MRT) after intravenous administration in VX2-tumor-carrying rabbits; conditions: 200 μmol of Gd/kg i.v.
Description: Lymph Node Visualization (MRT) After Intravenous Administration of the Contrast Medium According to the Invention of Example 1 in VX2-tumor-carrying Rabbits

[3] = Organ distribution (including tumor and lymph node concentration) after intravenous administration in prostate-cancer-carrying rats; conditions: 225 μmol total Gd/kg i.v.
Description: Organ Distribution (Including Tumor and Lymph Node Concentration) After Intravenous Administration of the Contrast Medium According to the Invention of Example 1 in Prostate-cancer-carrying Rats
After intravenous administration of 225 μmol of total gadolinium/kg of body weight of the title compound of Example 1 in rats (Cop-inbreeding Dunning R3327 MAT-Lu prostate cancer i.m.-implanted 12 days earlier), the metal content in various organs, in tumors and in lymph nodes (pooled as mesenteral and peripheral lymph nodes) was determined 10 minutes, 1 and 24 hours after administration (MW±SD, n=3).

[4] = Intestine (emptied), 10 min p.i.
[5] = Muscle (only tissue sample from right lower leg muscle), 10 min p.i.
[6] = Muscle (only tissue sample from right lower leg muscle), 1 h p.i.
[7] = Muscle (only tissue sample from right lower leg muscle), 24 h p.i.
[8] = Remainder of body (also contains the remainder of the blood), 24 h p.i.
[9] = mes. LK (pooled mesenteral lymph nodes), 10 min p.i.
[10] = mes. LK (pooled mesenteral lymph nodes), 1 h p.i.
[11] = mes. LK (pooled mesenteral lymph nodes), 24 h p.i.
[12] = periph. LK (pooled peripheral lymph nodes), 10 min p.i.
[13] = periph. LK (pooled peripheral lymph nodes), 1 h p.i.
[14] = periph. LK (pooled peripheral lymph nodes), 24 h p.i.

SMILES: CC(C(=O)NCC(=O)NCCCC[C@H](NC(=O)CO[C@H]1O[C@H](CO)[C@@H](O)[C@H](O)[C@@H]1O)C(=O)N1CCN(S(=O)(=O)C(F)(F)C(F)(F)C(F)(F)C(F)(F)C(F)(F)C(F)(F)C(F)(F)C(F)(F)F)CC1)N1CCN(CC(=O)[O-])CCN(CC(=O)[O-])CCN(CC(=O)[O-])CC1.[Gd+3] (some centres unmarked) [Example 1]
- MR signal in the infarction area [1]: strong signal rise
- MR signal in lymph node metastasis ([2]; 24 hours after administration): considerable signal rise
- MR signal rise in healthy lymph node tissue ([2]; 24 hours after administration): reduced
- MR enhancement of the primary tumor ([2]; 24 hours p.i.): enhancement also propagates out from the center of the tumor
- MR signal in lymph node metastasis ([2]; early after administration, confirmed histologically): without a signal rise
- MR signal in healthy lymph node tissue ([2]; iliac lymph nodes, T1-weighted gradient-echo, 1.5 T, early after administration): strong signal rise
- MR enhancement of the primary tumor ([2]; immediately after administration, especially the periphery): considerable enhancement
- % Dose per Total Tissue, Balance ([3]; Balance, 24 h p.i.): 94.1 ± 6.41 % Dose
- % Dose per Total Tissue ([3]; Blood (58 ml of blood/kg of body weight), 10 min p.i.): 42.95 ± 2.59 % Dose
- % Dose per Total Tissue ([3]; Blood (58 ml of blood/kg of body weight), 1 h p.i.): 21.47 ± 1.78 % Dose
- % Dose per Total Tissue ([3]; Blood (58 ml of blood/kg of body weight), 24 h p.i.): 1.78 ± 0.03 % Dose
- Gd-Concentration ([3]; Blood, 10 min p.i.): 1665 ± 110 µmol/L
- Gd-Concentration ([3]; Blood, 1 h p.i.): 825 ± 67 µmol/L
- Gd-Concentration ([3]; Blood, 24 h p.i.): 214 ± 9 µmol/L
- % Dose per Total Tissue ([3]; Brain, 10 min p.i.): 0.15 ± 0.03 % Dose
- Gd-Concentration ([3]; Brain, 10 min p.i.): 47 ± 13 µmol/L
- % Dose per Total Tissue ([3]; Brain, 1 h p.i.): 0.08 ± 0.02 % Dose
- Gd-Concentration ([3]; Brain, 1 h p.i.): 26 ± 5 µmol/L
- % Dose per Total Tissue ([3]; Brain, 24 h p.i.): 0.04 ± 0.00 % Dose
- Gd-Concentration ([3]; Brain, 24 h p.i.): 14 ± 2 µmol/L
- % Dose per Total Tissue ([3]; Feces 0-24 h): 21.85 ± 1.46 % Dose
- Gd-Concentration ([3]; Feces 0-24 h): 3128 ± 204 µmol/L
- % Dose per Total Tissue ([3]; Femur, 10 min p.i.): 0.65 ± 0.01 % Dose
- Gd-Concentration ([3]; Femur, 10 min p.i.): 184 ± 4 µmol/L
- % Dose per Total Tissue ([3]; Femur, 1 h p.i.): 0.46 ± 0.03 % Dose
- Gd-Concentration ([3]; Femur, 1 h p.i.): 127 ± 9 µmol/L
- % Dose per Total Tissue ([3]; Femur, 24 h p.i.): 0.31 ± 0.03 % Dose
- Gd-Concentration ([3]; Femur, 24 h p.i.): 87 ± 6 µmol/L
- % Dose per Total Tissue ([3]; Heart, 10 min p.i.): 0.46 ± 0.01 % Dose
- Gd-Concentration ([3]; Heart, 10 min p.i.): 438 ± 29 µmol/L
- % Dose per Total Tissue ([3]; Heart, 1 h p.i.): 0.31 ± 0.03 % Dose
- Gd-Concentration ([3]; Heart, 1 h p.i.): 289 ± 24 µmol/L
- % Dose per Total Tissue ([3]; Heart, 24 h p.i.): 0.14 ± 0.02 % Dose
- Gd-Concentration ([3]; Heart, 24 h p.i.): 131 ± 9 µmol/L
- % Dose per Total Tissue [3, 4]: 2.91 ± 0.18 % Dose
- Gd-Concentration [3, 4]: 342 ± 16 µmol/L
- % Dose per Total Tissue ([3]; Intestine (emptied), 1 h p.i.): 3.41 ± 1.02 % Dose
- Gd-Concentration ([3]; Intestine (emptied), 1 h p.i.): 409 ± 67 µmol/L
- % Dose per Total Tissue ([3]; Intestine (emptied), 24 h p.i.): 2.14 ± 0.14 % Dose
- Gd-Concentration ([3]; Intestine (emptied), 24 h p.i.): 243 ± 22 µmol/L
- % Dose per Total Tissue ([3]; Kidney, 10 min p.i.): 5.02 ± 1.29 % Dose
- Gd-Concentration ([3]; Kidney, 10 min p.i.): 2081 ± 537 µmol/L
- % Dose per Total Tissue ([3]; Kidney, 1 h p.i.): 2.15 ± 0.23 % Dose
- Gd-Concentration ([3]; Kidney, 1 h p.i.): 883 ± 94 µmol/L
- % Dose per Total Tissue ([3]; Kidney, 24 h p.i.): 2.97 ± 0.21 % Dose
- Gd-Concentration ([3]; Kidney, 24 h p.i.): 1178 ± 139 µmol/L
- % Dose per Total Tissue ([3]; Liver, 10 min p.i.): 5.46 ± 0.16 % Dose
- Gd-Concentration ([3]; Liver, 10 min p.i.): 387 ± 26 µmol/L
- % Dose per Total Tissue ([3]; Liver, 1 h p.i.): 5.81 ± 0.16 % Dose
- Gd-Concentration ([3]; Liver, 1 h p.i.): 364 ± 8 µmol/L
- % Dose per Total Tissue ([3]; Liver, 24 h p.i.): 11.65 ± 0.97 % Dose
- Gd-Concentration ([3]; Liver, 24 h p.i.): 746 ± 34 µmol/L
- % Dose per Total Tissue ([3]; Lung, 10 min p.i.): 1.69 ± 0.06 % Dose
- Gd-Concentration ([3]; Lung, 10 min p.i.): 837 ± 32 µmol/L
- % Dose per Total Tissue ([3]; Lung, 1 h p.i.): 1.38 ± 0.08 % Dose
- Gd-Concentration ([3]; Lung, 1 h p.i.): 658 ± 29 µmol/L
- % Dose per Total Tissue ([3]; Lung, 24 h p.i.): 0.73 ± 0.04 % Dose
- Gd-Concentration ([3]; Lung, 24 h p.i.): 370 ± 34 µmol/L
- % Dose per Total Tissue [3, 5]: 10.11 ± 0.03 % Dose
- Gd-Concentration [3, 5]: 99 ± 5 µmol/L
- % Dose per Total Tissue [3, 6]: 0.09 ± 0.03 % Dose
- Gd-Concentration [3, 6]: 78 ± 1 µmol/L
- % Dose per Total Tissue [3, 7]: 0.04 ± 0.00 % Dose
- Gd-Concentration [3, 7]: 36 ± 1 µmol/L
- % Dose per Total Tissue ([3]; Pancreas, 10 min p.i.): 0.26 ± 0.05 % Dose
- Gd-Concentration ([3]; Pancreas, 10 min p.i.): 229 ± 27 µmol/L
- % Dose per Total Tissue ([3]; Pancreas, 1 h p.i.): 0.21 ± 0.05 % Dose
- Gd-Concentration ([3]; Pancreas, 1 h p.i.): 199 ± 30 µmol/L
- % Dose per Total Tissue ([3]; Pancreas, 24 h p.i.): 0.17 ± 0.02 % Dose
- Gd-Concentration ([3]; Pancreas, 24 h p.i.): 130 ± 13 µmol/L
- % Dose per Total Tissue [3, 8]: 30.83 ± 4.05 % Dose
- Gd-Concentration [3, 8]: 225 ± 31 µmol/L
- % Dose per Total Tissue ([3]; Spleen, 10 min p.i.): 0.39 ± 0.03 % Dose
- Gd-Concentration ([3]; Spleen, 10 min p.i.): 548 ± 22 µmol/L
- % Dose per Total Tissue ([3]; Spleen, 1 h p.i.): 0.39 ± 0.02 % Dose
- Gd-Concentration ([3]; Spleen, 1 h p.i.): 487 ± 25 µmol/L
- % Dose per Total Tissue ([3]; Spleen, 24 h p.i.): 0.57 ± 0.03 % Dose
- Gd-Concentration ([3]; Spleen, 24 h p.i.): 645 ± 27 µmol/L
- % Dose per Total Tissue ([3]; Stomach (emptied), 10 min p.i.): 0.57 ± 0.04 % Dose
- Gd-Concentration ([3]; Stomach (emptied), 10 min p.i.): 231 ± 10 µmol/L
- % Dose per Total Tissue ([3]; Stomach (emptied), 1 h p.i.): 0.54 ± 0.12 % Dose
- Gd-Concentration ([3]; Stomach (emptied), 1 h p.i.): 219 ± 46 µmol/L
- % Dose per Total Tissue ([3]; Stomach (emptied), 24 h p.i.): 0.37 ± 0.06 % Dose
- Gd-Concentration ([3]; Stomach (emptied), 24 h p.i.): 138 ± 9 µmol/L
- % Dose per Total Tissue, Sum of Organs ([3]; Sum of Organs (less the remainder of the body), 10 min p.i.): 60.47 ± 3.68 % Dose
- % Dose per Total Tissue, Sum of Organs ([3]; Sum of Organs (less the remainder of the body), 1 h p.i.): 36.33 ± 2.51 % Dose
- % Dose per Total Tissue, Sum of Organs ([3]; Sum of Organs, 24 h p.i.): 52.01 ± 5.22 % Dose
- % Dose per Total Tissue ([3]; Tumor, 10 min p.i.): 0.28 ± 0.10 % Dose
- Gd-Concentration ([3]; Tumor, 10 min p.i.): 185 ± 36 µmol/L
- % Dose per Total Tissue ([3]; Tumor, 1 h p.i.): 0.21 ± 0.02 % Dose
- Gd-Concentration ([3]; Tumor, 1 h p.i.): 184 ± 13 µmol/L
- % Dose per Total Tissue ([3]; Tumor, 24 h p.i.): 0.31 ± 0.01 % Dose
- Gd-Concentration ([3]; Tumor, 24 h p.i.): 199 ± 19 µmol/L
- % Dose per Total Tissue ([3]; Urine 0-24 h): 20.20 ± 4.41 % Dose
- Gd-Concentration ([3]; Urine 0-24 h): 94 ± 20 µmol/L
- % Dose per Total Tissue [3, 9]: 0.11 ± 0.04 % Dose
- Gd-Concentration [3, 9]: 359 ± 72 µmol/L
- % Dose per Total Tissue [3, 10]: 0.24 ± 0.02 % Dose
- Gd-Concentration [3, 10]: 697 ± 42 µmol/L
- % Dose per Total Tissue [3, 11]: 0.32 ± 0.04 % Dose
- Gd-Concentration [3, 11]: 854 ± 135 µmol/L
- % Dose per Total Tissue [3, 12]: 0.10 ± 0.01 % Dose
- Gd-Concentration [3, 12]: 229 ± 15 µmol/L
- % Dose per Total Tissue [3, 13]: 0.20 ± 0.03 % Dose
- Gd-Concentration [3, 13]: 436 ± 44 µmol/L
- % Dose per Total Tissue [3, 14]: 0.18 ± 0.01 % Dose
- Gd-Concentration [3, 14]: 373 ± 24 µmol/L
